Measurements taken from patent US20250367170A1, “TOPICAL ANGIOTENSIN II RECEPTOR BLOCKERS (ARBS) FOR TREATING EYE CONDITIONS” (The Cleveland Clinic Foundation, priority 2022, published 2025).

Key:
[1] = system: rabbit corneas after -9D PRK; test: Slit lamp central opacity (ImageJ) one month after -9D PRK; type: in vivo, New Zealand white rabbits; settings: topical 0.2 mg/ml six times a day, vehicle 93±6
Protocol: Animal procedures were approved by the Institutional Animal Care and Use Committee at the Cleveland Clinic Foundation and animals were treated in accordance with the tenets of the Association for Research in Vision and Ophthalmology Statement for the Use of Animals in Ophthalmic and Vision Research. Twelve female 12- to 15-week-old New Zealand white rabbits weighing 2.5 to 3 kg each were included. Starting 24 hours prior to surgery and continuing 5 days after PRK, all rabbits received 60 mL children's liquid acetaminophen (Johnson & Johnson, Ft. Washington, PA, USA) per 1 L of drinking water. One eye of each rabbit was randomly selected to have −9.0 D (on myopia scale) PRK and received 2 drops of topical 1% proparacaine hydrochloride (Alcon, Fort Worth, TX, USA) prior to the surgery. […]
At 1 month after PRK and treatment, each rabbit was placed under ketamine-xylazine general anesthesia and the eyes were dilated with two drops of 1% tropicamide (Akorn Co., Lake Forest, IL, USA) for 30 minutes. […] For each study cornea, the mean opacity in pixels in the central 3.5 mm of the PRK ablated zone was determined by using ImageJ 1.53a analysis software (National Institutes of Health, Bethesda, MD, USA).

[2] = system: α-smooth muscle actin (SMA) marker for myofibroblasts; test: IHC for SMA, area of SMA-positive posterior fibrotic stroma (QuPath) after Descemetorhexis; type: in vivo, New Zealand White rabbits
Protocol: At one month after surgery and treatment, an intravenous injection of 100 mg/kg Beuthanasia (Shering-Plough, Kenilworth, NJ) was given for euthanasia with the animals under general anaesthesia. Sharp Westcott scissors (Fairfield, CT, USA) and 0.12 forceps (Storz, St. Louis, MO) were used to remove the comeo-scleral rims of the sham unwounded and DMR eyes without touching the cornea. Each cornea was set in the center of a 24×24×5 mm mold (Fisher Scientific, Pittsburgh, PA, USA) and the mold was filled in liquid OCT compound (Sakura Finetek, Torrance, CA, USA). The molds and cornea-scleral rims were quick frozen on dry ice and stored at −80° C. until sections were cut.
Each OCT block was bisected in the exact center of the cornea, and 8 μm thick transverse sections were cut from the central cornea within the previous DMR injury or unwounded sham surgery corneas with a cryostat (HM 505M; Micron GmbH, Walldorf, Germany) and three sections per slide were placed on 25 mm×75 mm×1 mm Superfrost Plus microscope slides (Fisher Scientific, Pittsburgh, PA, USA). Slides were maintained at −20° C. until immunohistochemistry.
Duplex immunohistochemistry (IHC) was performed after masking of slides by a researcher not involved in the analysis using previously described methods (de Oliveira et al., 2021) using primary antibodies (Table 2) confirmed by western blotting and IHC to recognize rabbit antigens or isotypic control antibodies (ThermoFisher Scientific, Waltham, MA), and secondary fluorescent tagged antibodies (Table 3).
The area of the SMA-positive posterior fibrotic stroma was quantitated with the original groups masked to the analyzer by standardized photography with a lOx objective on a Leica DM6B upright microscope equipped with an automated stage and Leica 7000 T camera using the LAS X software (Leica Microsystems, GmbH, Wetzlar, Germany). The area of the SMA-positive posterior stromal fibrosis was measured by manually outlining the area on the cornea sections with calibrated QuPath v0.2.3 software using previously described methods (Bankhead et al., 2017). Statistical analysis for the area of SMA-positive fibrosis was performed using the Kruskal-Wallis test followed by post-hoc Dunn's-Bonferroni test and p<0.05 was considered statistically significant.

collagen type IV = test: IHC stromal collagen type IV pixels (ImageJ) one month after -9D PRK; type: in vivo, New Zealand white rabbits
Protocol: Rabbits were euthanized while under ketamine-xylazine general anesthesia with 100 mg/kg Beuthanasia (Shering-Plough, Kenilworth, NJ, USA) by intravenous injection followed by bilateral pneumothorax. The corneo-scleral rims were removed with sharp Westcott scissors (Fairfield, CT, USA) and 0.12 forceps (Storz, St Louis, MO, USA). The corneo-scleral rim was then centered in a 24-mm×24-mm×5-mm mold (Fisher Scientific, Pittsburgh, PA, USA) that was filled with optimal cutting temperature (OCT) compound (Sakura Finetek, Torrance, CA, USA) and quick frozen on dry ice. Blocks were stored at −80° C. until sectioning. Blocks were bisected at the center of the cornea and 10-pm-thick transverse sections were cut from the central cornea with a cryostat (HM 505M; Micron 5 GmbH, Walldorf, Germany). Three sections from each cornea were placed on each 25-mm×75-mm×1-mm Superfrost Plus microscope slide (Fisher Scientific). Slides with sections were maintained at −20° C. prior to immunohistochemistry (IHC).
All images were converted to 300 DPI 900 pixel width×672 pixel height images with Photoshop 22.1.1 (Adobe, San Jose, CA). The mean pixels of stromal α-SMA or stromal collagen type IV were determined in a 900-pixel wide×235-pixel high rectangle (for either α-SMA or collagen type IV quantitation) with ImageJ in three sections for each cornea using the image panels showing only the color of interest. […]

CCCCc1nc(Cl)c(CO)n1Cc1ccc(-c2ccccc2-c2nn[nH]n2)cc1 [losartan]
mean pixels of opacity within the central 3.5 mm diameter area (mean±SEM) [1]: 77±3 pixels | posterior fibrosis compared with topical and oral vehicle ([2]; Descemetorhexis, oral 5 mg/kg three times per day, one month): similar | mean SMA-positive posterior fibrotic area vs vehicles or topical and oral losartan ([2]; Descemetorhexis, oral losartan alone, one month): not statistically significantly different | mean SMA-positive posterior fibrotic area compared to the other Descemetorhexis groups ([2]; Descemetorhexis, topical 0.1 mg/ml six times a day, one month): significantly lower | SMA-positive fibrotic zone in the posterior cornea ([2]; Descemetorhexis, topical 0.1 mg/ml six times per day, one month): marked decrease | SMA-positive fibrosis in the posterior cornea ([2]; Descemetorhexis, topical six times per day and oral three times per day, one month): decrease | SMA-positive posterior corneal fibrosis in uninjured corneas ([2]; oral three times a day): did not develop | SMA-positive posterior corneal fibrosis in uninjured corneas ([2]; topical six times a day): did not develop | collagen type IV detected in the underlying anterior stroma (IHC) compared with vehicle (collagen type IV): far smaller amounts
